Measured values as given in patent US20190290656A1, “PT(IV) PRODRUGS” (YISSUM RESEARCH DEVELOPMENT COMPANY OF THE HEBREW …, priority 2015, published 2019).
“Also recorded” adds a separate entry of the source. Read-outs that look alike come from different tables or passages of the source.

Key:
[1] = tested on: HCT-15 cells; experiment: MTT cytotoxicity assay, HCT-15; type: cell-based, human
Procedure: (§1) Cisplatin (CDDP) and oxaliplatin (OXP) were dissolved just before the experiment in a 0.9% NaCl solution. […]
(§2) Cancer Res. 1988, 48, 589-601]. […] Triplicate cultures were established for each treatment.
(§3) MTT assay. […] Triplicate cultures were established for each treatment.
(§4) The two dimers, 3a and 3b, as well as compounds 1a and 2a were screened against six human cancer cell lines representative of lung (H157), colon (HCT-15), cervical (A431), ovarian (2008) and pancreatic (PSN1) cancers, along with melanoma (A375). Cytotoxicity was evaluated by means of the MTT test after 72 h of treatment and the in vitro antitumor potential of newly synthesized derivatives was compared to that of the reference metallo-drugs CDDP and OXP.

[2] = tested on: PSN1 cells; experiment: MTT cytotoxicity assay, PSN1; type: cell-based, human; conditions: PSN1, 72 h, MTT
Procedure: as §3, §4

[3] = tested on: A375 cells; experiment: MTT cytotoxicity assay, A375; type: cell-based, human
Procedure: as §1, §2, §3, §4

[4] = tested on: A431 cells; experiment: MTT cytotoxicity assay, A431; type: cell-based, human; conditions: A431, 72 h
Procedure: as §3, §4

[5] = tested on: Histone deacetylase (HDAC); experiment: Histone deacetylase assay (Fluor-de-Lys) in MCF-7 cells; type: cell-based, human
Procedure: Histone deacetylase activity was determined using Fluor-de-Lys® HDAC fluorometric activity assay kit (Enzo Life Sciences International, Inc., Plymount Meeting, Pa., U.S.A.). […] Fluorescence was measured using a Fluoroskan Ascent FL (Labsystem, Finland) plate reader, with excitation at 360 nm and emission at 460 nm. For comparison purpose, the HDAC activity was also measured in nuclear extracts of MCF-7-treated cells by means of the same fluorometric activity assay kit. In this latter case, MCF-7 nuclear extracts were obtained as follow: cell pellets were re-suspended in lysis buffer [Tris.HCl (10 mM, pH 8.0), KCl (60 mM), EDTA (1.2 mM), DTT (1 mM), PMSF (0.05 mM), NP-40 (0.05%)] and kept on ice for 10 min. Subsequently, samples were centrifuged at 1000 g and re-suspended in the nuclear extraction buffer [Tris.HCl (20 mM, (pH 8.0), NaCl (420 mM), MgCl2 (0.7 mM), EDTA (0.25 mM), glycerol (25%)] for 30 min at 4° C., and then centrifuged at 15000 g for 15 min at 4° C.
The complexes described here were specifically designed to release either VPA of PhB inside the cells in the hope that they will inhibit HDAC activity paving the way for more efficient DNA platination. Thus, in addition to measuring the levels of DNA platination, we also measured the ability of these pro-drugs to inhibit HDAC activity in cells. […] For comparison purposes, the HDAC inhibitory effect determined by tested complexes was also assayed in isolated nuclei of MCF-7 treated cells (FIG. 3B).
The HDAC activity was determined by the Fluor de Lys® Fluorescent Cellular Activity Assay (Enzo Life Sciences).
Also, MCF-7 cells were incubated for 24 h with increasing concentrations of compounds I-VIII and their HDAC activity was determined. The IC50 values for the inhibition of HDAC activity in the cells are depicted in FIG. 3C.

[6] = tested on: nine cancer cell lines; experiment: MTT cytotoxicity, over the nine cancer cell lines; conditions: for cytotoxicity IC50 values (in words): uncoordinated ligands
[7] = tested on: PC3 cells; experiment: MTT cytotoxicity assay, PC3; type: cell-based, human; conditions: PC3, 72 h exposure, read-out: IC50 (median growth inhibitory concentration)
Procedure: (§5) Cisplatin (CDDP) and oxaliplatin (OXP) were dissolved just before the experiment in a 0.9% NaCl solution.
(§6) Human prostate adenocarcinoma (PC3) cells were obtained from European Collection of Cell Cultures (ECACC, Salisbury, UK). Human ovarian cancer cell lines A2780 and its cisplatin resistant variant, A2780cisR, were kindly provided by Prof.
(§7) Triplicate cultures were established for each treatment.

[8] = tested on: BxPC3 cells; experiment: MTT cytotoxicity assay, BxPC3; type: cell-based, human; conditions: BxPC3, 72 h exposure, MTT; read-out: IC50 (median growth inhibitory concentration)
[9] = tested on: A2780cisR cells; experiment: MTT cytotoxicity assay, A2780cisR (cisplatin resistant); type: cell-based, human; conditions: for IC50: 72 h exposure, MTT, read-out: IC50 (median growth inhibitory concentration); for resistance factor: ratio IC50 resistant (A2780cisR) / sensitive (A2780) cells
Procedure: (§8) Platinum(IV) complexes were dissolved in DMSO to stock solutions of 1 mg/mL just before the experiment, and a calculated amount of drug solution was added to the cell growth medium to a final solvent concentration of 0.5%, which had no discernible effect on cell killing. Cisplatin (CDDP) and oxaliplatin (OXP) were dissolved just before the experiment in a 0.9% NaCl solution.
as §6, §2

[10] = tested on: MCF-7 cells; experiment: MTT cytotoxicity assay, MCF-7; type: cell-based, human; conditions: MCF-7, 72 h exposure, MTT; read-out: IC50 (median growth inhibitory concentration)
Procedure: as §5, §6, §7

[11] = tested on: A2780 cells; experiment: MTT cytotoxicity assay, A2780; type: cell-based, human; conditions: A2780, 72 h exposure, MTT; read-out: IC50 (median growth inhibitory concentration)
Procedure: as §8, §6, §2

[12] = tested on: A498 cells; experiment: MTT cytotoxicity assay, A498; type: cell-based, human; conditions: A498, 72 h exposure, read-out: IC50 (median growth inhibitory concentration)
Procedure: as §8, §6, §2

[13] = tested on: A549 cells; experiment: MTT cytotoxicity assay, A549; type: cell-based, human; conditions: A549, 72 h exposure, MTT; read-out: IC50 (median growth inhibitory concentration)
Procedure: as §5, §6, §7

[14] = HCT-15, 72 h, MTT (Table 5), read-out: IC50 (μM) ± S.D.
[15] = A375, 72 h, MTT (Table 5), read-out: IC50 (μM) ± S.D.
[16] = HCT-15, 72 h exposure, MTT (Table 1), read-out: IC50 (median growth inhibitory concentration)
[17] = A375, 72 h exposure, MTT (Table 1), read-out: IC50 (median growth inhibitory concentration)
[18] = read-out: average IC50 values for the nine cancer cell lines, mean over nine cell lines, 72 h MTT

Row | Compound | IC50 [7] | IC50 [8] | IC50 [1, 16] | IC50 ([9]; A2780cisR) | IC50 [10] | IC50 [11] | IC50 [3, 17] | IC50 [12] | IC50 [13] | IC50 [6, 18] | further results
1 | c,c,t-[Pt(NH3)2Cl2(DCA)(GABA)](TFA) [Compound 1a] | – | – | – | – | – | – | – | – | – | – | IC50 [1, 14]: 12.5 ± 3.58 µM; IC50 [2]: 4.74 ± 2.87 µM; IC50 [3, 15]: 2.81 ± 0.21 µM; IC50 [4]: 4.98 ± 1.63 µM
2 | CCCC(CCC)C(=O)O [VPA, valproic acid, reference compound] | – | – | – | – | – | – | – | – | – | – | IC50 ([5]; MCF-7, 24 h, increasing concentrations, read-out: IC50 for cellular inhibition of HDAC activity): ~8000 µM; cytotoxicity IC50 values (in words) [6]: millimolar range; also recorded: mM range
3 | CC(=O)[O][Pt]([NH2])([NH2])([Cl])([Cl])[O]C(=O)CCCc1ccccc1 [VII, Ctc-[Pt(NH3)2(C2H3O2)(C10H11O2)Cl2]] | 4.34 ± 1.25 µM | 10.1 ± 1.69 µM | 5.17 ± 0.85 µM | 1.54 ± 0.27 µM | 3.43 ± 0.14 µM | 0.65 ± 0.04 µM | 6.25 ± 1.94 µM | 8.42 ± 1.47 µM | 7.16 ± 1.11 µM | 4.8 µM | factors more potent than cisplatin ([6]; in five out of the nine cell lines): 2.1-9 fold; IC50 ([6]; read-out: range of IC50 values over the cell lines, lowest-highest over nine cell lines): 0.65 to 10.1 µM
4 | C1CCNCC1.CCCC(CCC)C(=O)[O][Pt]([OH])([Cl])[Cl].CCCCN [Compound V, trans-[Pt(n-butylamine)(VPA)(OH) (piperidine) Cl2]] | 16.8 ± 1.41 µM | 4.43 ± 1.94 µM | 14.4 ± 2.05 µM | 1.29 ± 0.29 µM | 8.8 ± 1.48 µM | 1.18 ± 0.33 µM | 12.4 ± 2.93 µM | 8.64 ± 0.95 µM | 15.5 ± 1.13 µM | 9.27 µM | fold more potent/effective than cisplatin ([9]; A2780cisR): roughly 11 fold; resistance factor [9]: 1.1
5 | CC(/C=C/C(=O)NO)=C\[C@@H](C)C(=O)c1ccc(N(C)C)cc1 [TSA, trichostatin A] | – | – | – | – | – | – | – | – | – | – | inhibition of HDAC activity ([5]; MCF-7, 24 h incubation with IC50 concentrations): about 90%
6 | c,c,t-[Pt(DACH)(56Phen)(PhBu)(Succ)]Cl2 [Compound 2a] | – | – | – | – | – | – | – | – | – | – | IC50 [1, 14]: 6.25 ± 3.08 µM; IC50 [2]: 3.23 ± 1.12 µM; IC50 [3, 15]: 1.57 ± 0.16 µM; IC50 [4]: 4.15 ± 1.12 µM
7 | O=C(CCCc1ccccc1)[O][Pt]12([O]C(=O)CCCc3ccccc3)([NH]C3CCCCC3[NH]1)[O]C(=O)C(=O)[O]2 (stereo not drawn) [VIII, [Pt(DACH)(C10H11O2)2(ox)]] | 6.35 ± 1.19 µM | 7.64 ± 1.15 µM | 12.5 ± 1.13 µM | 1.96 ± 0.44 µM | 2.28 ± 0.46 µM | 0.9 ± 0.08 µM | 0.64 ± 0.13 µM | 9.32 ± 1.07 µM | 19.6 ± 3.22 µM | 6.81 µM | –
8 | O=C(O)CCCc1ccccc1 [Compound 4-PB, 4-phenylbutyric acid, reference compound] | – | – | – | – | – | – | – | – | – | – | IC50 for cellular inhibition of HDAC activity (in words) ([5]; MCF-7, 24 h, increasing concentrations): significantly higher; cytotoxicity IC50 values (in words) ([6]; listed as PhB): millimolar range; also recorded: mM range
9 | CCCC(CCC)C(=O)[O][Pt]12([O]C(=O)C(CCC)CCC)([NH]C3CCCCC3[NH]1)[O]C(=O)C(=O)[O]2 (stereo not drawn) [III, [Pt(DACH)(C8H15O2)2(ox)]] | 10.1 ± 1.17 µM | 14.4 ± 2.16 µM | 16.4 ± 1.63 µM | 8.8 ± 2.1 µM | 5.7 ± 0.9 µM | 1.3 ± 0.2 µM | 4.17 ± 0.87 µM | 5.21 ± 1.1 µM | 20.5 ± 2.14 µM | – | resistance factor [9]: 6.8
